Reference: patent publication US7057052B2, “Heterocyclic quinones as pharmaceutical agents” (Duke University, priority 2002, dated 2006)

biological target: T1, Cdc25B (Homo sapiens, UniProt P30305); assay: Cdc25B phosphatase inhibition (50 μM screen, 3 pt. and 8 pt. IC-50); type: biochemical; details: Cdc25B; 3 pt. IC-50 using 1, 7 and 50 μM; read-out: IC50 (3 pt)
T1 sequence (P30305 1-580): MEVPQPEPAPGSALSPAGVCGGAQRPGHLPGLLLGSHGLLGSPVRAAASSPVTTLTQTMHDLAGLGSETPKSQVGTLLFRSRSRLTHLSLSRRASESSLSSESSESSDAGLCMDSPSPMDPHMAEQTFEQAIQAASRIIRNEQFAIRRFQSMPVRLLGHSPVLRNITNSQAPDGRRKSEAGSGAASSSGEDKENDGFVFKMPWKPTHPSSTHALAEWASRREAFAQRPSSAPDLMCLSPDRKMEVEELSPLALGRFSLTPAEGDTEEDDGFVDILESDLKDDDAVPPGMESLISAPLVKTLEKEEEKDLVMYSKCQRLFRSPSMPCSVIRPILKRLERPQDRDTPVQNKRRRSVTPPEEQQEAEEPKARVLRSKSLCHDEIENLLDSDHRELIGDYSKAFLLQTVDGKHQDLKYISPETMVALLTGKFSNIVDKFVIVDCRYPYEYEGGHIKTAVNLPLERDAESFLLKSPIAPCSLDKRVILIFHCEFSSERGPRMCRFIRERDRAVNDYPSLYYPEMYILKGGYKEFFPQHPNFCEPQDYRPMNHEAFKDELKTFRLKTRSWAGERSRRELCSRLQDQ
Protocol: Using procedures known to those skilled in the art, the compounds listed in Table 3 were screened against Cdc25A, Cdc25B, and Cdc25C at 50 μM. […] To analyze these effects further, the compounds were then screened against Cdc25B in a 3 pt. IC-50, using 1, 7 and 50 μM. Several of the compounds were also screened with an 8 pt. IC-50 process, using 0.1–10 μM, allowing determination of Hill slopes.

Structure (SMILES) | IC50
CC(C)(C)c1[nH]c2ccccc2c1C1=C(O)C(=O)C(c2c[nH]c3ccccc23)=C(O)C1=O [8F, 2-(2-tert-butyl-1H-indol-3-yl)-3,6-dihydroxy-5-(1H-indol-3-yl)-[1,4]-benzoquinone] | 11.2 µM
Cn1cc(C2=C(O)C(=O)C(c3c(C(C)(C)C)[nH]c4ccccc34)=C(O)C2=O)c2ccccc21 [8G, 2-(2-tert-butyl-1H-indol-3-yl)-3,6-dihydroxy-5-(1-methyl-1H-indol-3-yl)-[1,4]-benzoquinone] | 12 µM
COc1cccc2[nH]cc(C3=C(O)C(=O)C(c4c(C(C)(C)C)[nH]c5ccccc45)=C(O)C3=O)c12 [9E, 2-(2-tert-butyl-1H-indol-3-yl)-3,6-dihydroxy-5-(4-methoxy-1H-indol-3-yl)-[1,4]-benzoquinone] | 13.7 µM
CC(C)(C)c1[nH]c2ccccc2c1C1=C(O)C(=O)C(c2c[nH]c3ccc(F)cc23)=C(O)C1=O [9G, 2-(2-tert-butyl-1H-indol-3-yl)-3,6-dihydroxy-5-(5-fluoro-1H-indol-3-yl)-[1,4]-benzoquinone] | 8.7 µM
COc1ccc2[nH]cc(C3=C(O)C(=O)C(c4c(C(C)(C)C)[nH]c5ccccc45)=C(O)C3=O)c2c1 [9H, 2-(2-tert-butyl-1H-indol-3-yl)-3,6-dihydroxy-5-(5-methoxyl-1H-indol-3-yl)-[1,4]-benzoquinone] | 80.3 µM
Cc1ccc2[nH]c(C)c(C3=C(O)C(=O)C(c4c(C(C)(C)C)[nH]c5ccccc45)=C(O)C3=O)c2c1 [10G, 2-(2-tert-butyl-1H-indol-3-yl)-3,6-dihydroxy-5-(2,5-dimethyl-1H-indol-3-yl)-[1,4]-benzoquinone] | 14.6 µM
COc1ccc2[nH]c(C)c(C3=C(O)C(=O)C(c4c(C(C)(C)C)[nH]c5ccccc45)=C(O)C3=O)c2c1 [10H, 2-(2-tert-butyl-1H-indol-3-yl)-3,6-dihydroxy-5-(2-methyl-5-methoxy-1H-indol-3-yl)-[1,4]-benzoquinone] | 11.5 µM
Cc1[nH]c2ccc(Cl)cc2c1C1=C(O)C(=O)C(c2c(C(C)(C)C)[nH]c3ccccc23)=C(O)C1=O [11A, 2-(2-tert-butyl-1H-indol-3-yl)-3,6-dihydroxy-5-(2-methyl-5-chloro-1H-indol-3-yl)-[1,4]-benzoquinone] | 8.4 µM
Cc1[nH]c2ccccc2c1C1=C(O)C(=O)C(c2c(C)[nH]c3ccccc23)=C(O)C1=O [11C, 2,5-dihydroxy-3,6-bis(2-methyl-1H-indol-3-yl)l-[1,4]-benzoquinone] | 15.7 µM
Cc1[nH]c2ccccc2c1C1=C(O)C(=O)c2cccc(O)c2C1=O [11D, 2,5-dihydoxy-3-(2-methyl-1H-indol-3-yl)-[1,4]naphthoquinone] | 18 µM
CC(C)(C)c1[nH]c2ccccc2c1C1=C(O)C(=O)C(c2c(C(C)(C)C)[nH]c3ccccc23)=C(Cl)C1=O [11E, 2,5-bis(2-tert-butyl-1H-indol-3-yl)-3-chloro-6-hydroxy-[1,4]-benzoquinone] | 22.9 µM
CC(C)(C)c1[nH]c2ccccc2c1C1=C(Cl)C(=O)C(c2c[nH]c3ccccc23)=C(O)C1=O [11F, 2-(2-tert-butyl-1H-indol-3-yl)-5-(1H-indol-3-yl)-3-chloro-6-hydroxy-[1,4]-benzoquinone] | 49.9 µM

Molecules with a lower IC50, results first:

IC50 | Structure (SMILES)
7.9 µM | Cn1cc(C2=C(O)C(=O)C(c3ccccc3)=C(O)C2=O)c2ccccc21 [11B, 2,5-dihydroxy-3-(1-methyl-1H-indol-3-yl)-6-phenyl-[1,4]-benzoquinone]
7.2 µM | Cc1ccc2[nH]cc(C3=C(O)C(=O)C(c4c(C(C)(C)C)[nH]c5ccccc45)=C(O)C3=O)c2c1 [10B, 2-(2-tert-butyl-1H-indol-3-yl)-3,6-dihydroxy-5-(5-methyl-1H-indol-3-yl)-[1,4]-benzoquinone]
6.1 µM | CC(C)(C)c1[nH]c2ccccc2c1C1=C(O)C(=O)C(c2c(-c3ccccc3)[nH]c3ccccc23)=C(O)C1=O [9D, 2-(2-tert-butyl-1H-indol-3-yl)-3,6-dihydroxy-5-(2-phenyl-1H-indol-3-yl)-[1,4]-benzoquinone]
5.8 µM | CC(C)(C)c1[nH]c2ccccc2c1C1=C(Cl)C(=O)C(c2c[nH]c3c(C(C)(C)C)cccc23)=C(O)C1=O [8D, 2-(2-tert-butyl-1H-indol-3-yl)-5-(7-tert-butyl-1H-indol-3-yl)-3-chloro-6-hydroxy-[1,4]-benzoquinone]
5.8 µM | Cc1[nH]c2ccccc2c1C1=C(O)C(=O)C(c2c(C(C)(C)C)[nH]c3ccccc23)=C(O)C1=O [8H, 2-(2-tert-butyl-1H-indol-3-yl)-3,6-dihydroxy-5-(2-methyl-1H-indol-3-yl)-[1,4]-benzoquinone]
5.6 µM | CC(C)(C)c1[nH]c2ccccc2c1C1=C(O)C(=O)C(c2c(C3CC3)[nH]c3ccccc23)=C(O)C1=O [9A, 2-(2-tert-butyl-1H-indol-3-yl)-3,6-dihydroxy-5-(2-cyclopropyl-1H-indol-3-yl)-[1,4]-benzoquinone]
5.3 µM | CC(C)(C)c1[nH]c2ccccc2c1C1=C(O)C(=O)C(c2c[nH]c3cc(F)ccc23)=C(O)C1=O [10C, 2-(2-tert-butyl-1H-indol-3-yl)-3,6-dihydroxy-5-(6-fluoro-1H-indol-3-yl)-[1,4]-benzoquinone]
5.3 µM | Cc1ccc2c(C3=C(O)C(=O)C(c4c(C(C)(C)C)[nH]c5ccccc45)=C(O)C3=O)c[nH]c2c1 [10D, 2-(2-tert-butyl-1H-indol-3-yl)-3,6-dihydroxy-5-(6-methyl-1H-indol-3-yl)-[1,4]-benzoquinone]
5.1 µM | CC(C)(C)c1[nH]c2ccccc2c1C1=C(O)C(=O)C(c2c(C(C)(C)C)[nH]c3ccccc23)=C(O)C1=O [9C, 2-(2-tert-butyl-1H-indol-3-yl)-3,6-dihydroxy-5-(2-tert-butyl-1H-indol-3-yl)-[1,4]-benzoquinone]
5 µM | CC(C)c1[nH]c2ccccc2c1C1=C(O)C(=O)C(c2c(C(C)(C)C)[nH]c3ccccc23)=C(O)C1=O [9B, 2-(2-tert-butyl-1H-indol-3-yl)-3,6-dihydroxy-5-(2-isopropyl-1H-indol-3-yl)-[1,4]-benzoquinone]
4.8 µM | Cc1cccc2c(C3=C(O)C(=O)C(c4c(C(C)(C)C)[nH]c5ccccc45)=C(O)C3=O)c[nH]c12 [10E, 2-(2-tert-butyl-1H-indol-3-yl)-3,6-dihydroxy-5-(7-methyl-1H-indol-3-yl)-[1,4]-benzoquinone]
2.3 µM | CC(C)(C)c1[nH]c2ccccc2c1C1=C(O)C(=O)C(c2c[nH]c3cccc(OCc4ccccc4)c23)=C(O)C1=O [9F, 2-(2-tert-butyl-1H-indol-3-yl)-3,6-dihydroxy-5-(4-benzyloxy-1H-indol-3-yl)-[1,4]-benzoquinone]
0.9 µM | C=CC(C)(C)c1[nH]c2ccccc2c1C1=C(O)C(=O)C(c2c[nH]c3c(CC=C(C)C)cccc23)=C(O)C1=O [8E, DAQ-B1, reference compound]
0.9 µM | CC(C)(C)c1[nH]c2ccccc2c1C1=C(O)C(=O)C(c2c[nH]c3c(C(C)(C)C)cccc23)=C(O)C1=O [10F, 2-(2-tert-butyl-1H-indol-3-yl)-3,6-dihydroxy-5-(7-tert-butyl-1H-indol-3-yl)-[1,4]-benzoquinone]
0.6 µM | CC(C)(C)c1[nH]c2ccccc2c1C1=C(O)C(=O)C(c2c[nH]c3ccc(OCc4ccccc4)cc23)=C(O)C1=O [10A, 2-(2-tert-butyl-1H-indol-3-yl)-3,6-dihydroxy-5-(5-benzyloxy-1H-indol-3-yl)-[1,4]-benzoquinone]
